Measurements from article PMC4501006, “Preliminary Characterization and In Vivo Studies of Structurally Identical ^18F- and ^125I-Labeled Benzyloxybenzenes for PET/SPECT Imaging of β-Amyloid Plaques” (Scientific Reports, 2015).
Values joined by “and” are separate entries in the source; they are usually repeats but may differ in a detail not shown here. Identical values can stand only once.

Experiment: In vivo biodistribution in normal ICR mice
Details: i.v.
Experimental: Histograms of brain and intestine uptake were presented in Fig. 6 for comparison, while detailed data concerning the in vivo biodistribution in normal ICR mice were collected in Table S3 in Supplementary information. […] [^125I]7a and [^125I]12a were rapidly cleared from the normal brain, with only small amounts of radioactivity remaining at 60 min post-injection (0.55% ID/g for [^125I]7a and 0.37% ID/g for [^125I]12a). […] In addition, no significant deiodination was observed (less than 0.5% ID in the thyroid at 60 min).
As the specific activity of ^18F-labeled ligands (about 60 GBq/μmol) was slightly lower than that of corresponding no-carrier-added ^125I-labeled ligands (81 GBq/μmol), the impact of specific activity on pharmacokinetics was studied. In vivo biodistribution of radioactivity after injection of carrier-added [^125I]7a with equal specific activity to corresponding [^18F]7a (60 GBq/μmol) was conducted in normal ICR mice through the same procedure.
A structural model of an Aβ fiber (PDB ID: 2LMO) derived from solid state NMR was downloaded from the RCSB Protein Data Bank (www.rcsb.org/pdb). Geometric optimization was performed using Gaussian 09 at the B3LYP/6–31 G and 3-21G levels in the water phase. Molecular docking was performed using AutoDock4.0, and the docking results were graphed with VMD 1.9.1 software. SYBYL-X 1.1 software was used to predict the binding affinities with previously constructed 3D-QSAR models. All reagents for chemical synthesis were used as purchased without further purification. [^125I]NaI was purchased from PerkinElmer and ^18F^– was kindly provided by the Chinese PLA General Hospital. ^1H and ^13C NMR spectra were recorded on a Bruker Avance III NMR spectrometer (400 MHz for ^1H; 101 MHz for ^13C) in CDCl3 or DMSO-d6 solutions at room temperature. Mass spectra were acquired with a GCT CA127 Micronass UK instrument. X-ray crystallographic data of compound 12a were collected on a Bruker Smart APEX II diffractometer (Bruker Co., Germany) and deposited at the Cambridge Crystallographic Data Centre as supplementary publication (no. CCDC 1063679). HPLC analysis was performed on a Shimadzu SCL-20 AVP equipped with a Bioscan Flow Count 3200 NaI/PMT γ-radiation scintillation detector and a SPD-20A UV detector, λ = 254 nm. A Venusil MP C18 reverse phase column (Agela Technologies, 5 μm, 4.6 × 250 mm) was used for separations and purity determinations with a binary gradient system (acetonitrile: water = 80%: 20%) at a 1.0 mL/min flow rate. Fluorescent observation was performed on the Axio Observer Z1 inverted fluorescence microscope (Zeiss, Germany) equipped with a DAPI filter set (excitation, 405 nm). Post-mortem brain sections from an autopsy-confirmed AD subject and a control subject were acquired from the Chinese Brain Bank. Transgenic mice (APPswe/PSEN1, male) and wild-type mice (C57BL6, male) were purchased from the Institute of Laboratory Animal Science, Chinese Academy of Medical Sciences. Normal ICR mice (20–22 g, male) were used for in vivo biodistribution, dynamic PET/CT and SPECT/CT scans, and biostability experiments. All experiments on mice were performed in accordance with the guidelines approved by the animal care committee of Beijing Normal University and Xiamen University.

[1] = carrier-added, SA ≈ 60 GBq/μmol, 2 min
[2] = carrier-added, SA ≈ 60 GBq/μmol, 10 min
[3] = carrier-added, SA ≈ 60 GBq/μmol, 30 min
[4] = carrier-added, SA ≈ 60 GBq/μmol, 60 min

## FCCOc1ccc(OCc2ccc([125I])cc2)cc1 [[^125I]7a]
[1]
  Biodistribution of radioactivity, blood: 3.30 ± 0.43 % injected dose per gram
  Biodistribution of radioactivity, brain: 5.39 % injected dose per gram
  Biodistribution of radioactivity, heart: 7.34 ± 0.69 % injected dose per gram
  Biodistribution of radioactivity, intestine: 4.57 ± 0.96 % injected dose per organ
  Biodistribution of radioactivity, kidney: 9.80 ± 1.05 % injected dose per gram
  Biodistribution of radioactivity, liver: 12.12 ± 2.01 % injected dose per gram
  Biodistribution of radioactivity, lung: 7.77 ± 0.18 % injected dose per gram
  Biodistribution of radioactivity, muscle: 3.37 ± 0.50 % injected dose per gram
  Biodistribution of radioactivity, pancreas: 6.79 ± 1.53 % injected dose per gram
  Biodistribution of radioactivity, spleen: 3.63 ± 0.83 % injected dose per gram
  Biodistribution of radioactivity, stomach: 1.15 ± 0.21 % injected dose per organ
  Biodistribution of radioactivity, thyroid: 0.12 ± 0.03 % injected dose per organ
carrier-added, SA ≈ 60 GBq/μmol, 2 min, listed as [125I]7a
  Biodistribution of radioactivity, brain: 5.39 ± 0.36 % injected dose per gram
[2]
  Biodistribution of radioactivity, blood: 2.31 ± 0.22 % injected dose per gram
  Biodistribution of radioactivity, brain: 3.51 ± 0.36 % injected dose per gram
  Biodistribution of radioactivity, heart: 2.32 ± 0.15 % injected dose per gram
  Biodistribution of radioactivity, intestine: 8.51 ± 0.48 % injected dose per organ
  Biodistribution of radioactivity, kidney: 10.01 ± 1.43 % injected dose per gram
  Biodistribution of radioactivity, liver: 11.30 ± 0.58 % injected dose per gram
  Biodistribution of radioactivity, lung: 6.50 ± 0.69 % injected dose per gram
  Biodistribution of radioactivity, muscle: 1.42 ± 0.20 % injected dose per gram
  Biodistribution of radioactivity, pancreas: 2.79 ± 0.35 % injected dose per gram
  Biodistribution of radioactivity, spleen: 1.53 ± 0.23 % injected dose per gram
  Biodistribution of radioactivity, stomach: 0.74 ± 0.09 % injected dose per organ
  Biodistribution of radioactivity, thyroid: 0.11 ± 0.01 % injected dose per organ
[3]
  Biodistribution of radioactivity, blood: 1.39 ± 0.15 % injected dose per gram
  Biodistribution of radioactivity, brain: 0.97 ± 0.11 % injected dose per gram
  Biodistribution of radioactivity, heart: 0.96 ± 0.13 % injected dose per gram
  Biodistribution of radioactivity, intestine: 18.87 ± 2.27 % injected dose per organ
  Biodistribution of radioactivity, kidney: 6.25 ± 1.23 % injected dose per gram
  Biodistribution of radioactivity, liver: 6.29 ± 0.22 % injected dose per gram
  Biodistribution of radioactivity, lung: 4.30 ± 0.58 % injected dose per gram
  Biodistribution of radioactivity, muscle: 0.95 ± 0.08 % injected dose per gram
  Biodistribution of radioactivity, pancreas: 1.06 ± 0.16 % injected dose per gram
  Biodistribution of radioactivity, spleen: 0.62 ± 0.03 % injected dose per gram
  Biodistribution of radioactivity, stomach: 1.67 ± 0.33 % injected dose per organ
  Biodistribution of radioactivity, thyroid: 0.12 ± 0.04 % injected dose per organ
[4]
  Biodistribution of radioactivity, blood: 0.83 ± 0.06 % injected dose per gram
  Biodistribution of radioactivity, brain: 0.37 % injected dose per gram
  Biodistribution of radioactivity, heart: 0.55 ± 0.10 % injected dose per gram
  Biodistribution of radioactivity, intestine: 25.30 ± 3.94 % injected dose per organ
  Biodistribution of radioactivity, kidney: 3.40 ± 0.48 % injected dose per gram
  Biodistribution of radioactivity, liver: 3.31 ± 0.37 % injected dose per gram
  Biodistribution of radioactivity, lung: 1.91 ± 0.29 % injected dose per gram
  Biodistribution of radioactivity, muscle: 0.72 ± 0.20 % injected dose per gram
  Biodistribution of radioactivity, pancreas: 0.57 ± 0.05 % injected dose per gram
  Biodistribution of radioactivity, spleen: 0.36 ± 0.03 % injected dose per gram
  Biodistribution of radioactivity, stomach: 1.04 ± 0.30 % injected dose per organ
  Biodistribution of radioactivity, thyroid: 0.22 ± 0.05 % injected dose per organ
carrier-added, SA ≈ 60 GBq/μmol, 60 min, listed as [125I]7a
  Biodistribution of radioactivity, brain: 0.37 ± 0.05 % injected dose per gram
  brain2 min/brain60 min ratio: 12.8
2 min
  Biodistribution of radioactivity, blood: 5.03 ± 0.20 % injected dose per gram
  Biodistribution of radioactivity, brain: > 5 % injected dose per gram and 7.04 % injected dose per gram
  Biodistribution of radioactivity, heart: 9.70 ± 2.25 % injected dose per gram
  Biodistribution of radioactivity, intestine: 6.46 ± 0.79 % injected dose per organ
  Biodistribution of radioactivity, kidney: 12.03 ± 1.20 % injected dose per gram
  Biodistribution of radioactivity, liver: 22.45 ± 3.88 % injected dose per gram
  Biodistribution of radioactivity, lung: 10.78 ± 2.33 % injected dose per gram
  Biodistribution of radioactivity, muscle: 3.72 ± 0.51 % injected dose per gram
  Biodistribution of radioactivity, pancreas: 8.15 ± 1.09 % injected dose per gram
  Biodistribution of radioactivity, spleen: 3.86 ± 0.21 % injected dose per gram
  Biodistribution of radioactivity, stomach: 1.32 ± 0.21 % injected dose per organ
  Biodistribution of radioactivity, thyroid: 0.12 ± 0.02 % injected dose per organ
2 min, listed as [125I]7a
  Biodistribution of radioactivity, brain: 7.04 ± 0.89 % injected dose per gram
10 min
  Biodistribution of radioactivity, blood: 3.03 ± 0.48 % injected dose per gram
  Biodistribution of radioactivity, brain: 2.73 ± 0.25 % injected dose per gram
  Biodistribution of radioactivity, heart: 2.01 ± 0.14 % injected dose per gram
  Biodistribution of radioactivity, intestine: 17.21 ± 2.33 % injected dose per organ
  Biodistribution of radioactivity, kidney: 9.53 ± 1.58 % injected dose per gram
  Biodistribution of radioactivity, liver: 14.43 ± 2.37 % injected dose per gram
  Biodistribution of radioactivity, lung: 7.44 ± 1.59 % injected dose per gram
  Biodistribution of radioactivity, muscle: 1.28 ± 0.11 % injected dose per gram
  Biodistribution of radioactivity, pancreas: 2.07 ± 0.30 % injected dose per gram
  Biodistribution of radioactivity, spleen: 1.32 ± 0.13 % injected dose per gram
  Biodistribution of radioactivity, stomach: 1.08 ± 0.24 % injected dose per organ
  Biodistribution of radioactivity, thyroid: 0.09 ± 0.02 % injected dose per organ
30 min
  Biodistribution of radioactivity, blood: 2.17 ± 0.31 % injected dose per gram
  Biodistribution of radioactivity, brain: 1.05 ± 0.22 % injected dose per gram
  Biodistribution of radioactivity, heart: 1.65 ± 0.43 % injected dose per gram
  Biodistribution of radioactivity, intestine: 19.88 ± 4.22 % injected dose per organ
  Biodistribution of radioactivity, kidney: 6.71 ± 0.78 % injected dose per gram
  Biodistribution of radioactivity, liver: 12.35 ± 2.83 % injected dose per gram
  Biodistribution of radioactivity, lung: 4.25 ± 0.41 % injected dose per gram
  Biodistribution of radioactivity, muscle: 1.29 ± 0.31 % injected dose per gram
  Biodistribution of radioactivity, pancreas: 2.61 ± 0.59 % injected dose per gram
  Biodistribution of radioactivity, spleen: 1.26 ± 0.20 % injected dose per gram
  Biodistribution of radioactivity, stomach: 4.38 ± 1.00 % injected dose per organ
  Biodistribution of radioactivity, thyroid: 0.12 ± 0.01 % injected dose per organ
60 min
  Biodistribution of radioactivity, blood: 1.96 ± 0.31 % injected dose per gram
  Biodistribution of radioactivity, brain: 0.55 % injected dose per gram
  Biodistribution of radioactivity, heart: 1.00 ± 0.18 % injected dose per gram
  Biodistribution of radioactivity, intestine: 20.21 ± 7.78 % injected dose per organ
  Biodistribution of radioactivity, kidney: 6.56 ± 1.10 % injected dose per gram
  Biodistribution of radioactivity, liver: 5.15 ± 1.09 % injected dose per gram
  Biodistribution of radioactivity, lung: 4.04 ± 1.63 % injected dose per gram
  Biodistribution of radioactivity, muscle: 1.36 ± 0.25 % injected dose per gram
  Biodistribution of radioactivity, pancreas: 1.97 ± 0.48 % injected dose per gram
  Biodistribution of radioactivity, spleen: 1.14 ± 0.56 % injected dose per gram
  Biodistribution of radioactivity, stomach: 2.44 ± 0.97 % injected dose per organ
  Biodistribution of radioactivity, thyroid: 0.16 ± 0.03 % injected dose per organ
60 min, listed as [125I]7a
  Biodistribution of radioactivity, brain: 0.55 ± 0.11 % injected dose per gram
